Tests used:
[1] = antimicrobial activity in preserving liquid aqueous formulations (general observation); conditions: at concentrations useful for pharmaceutical formulation purposes
[2] = tested on: Candida albicans, Aspergillus niger, Escherichia coli, Pseudomonas aeruginosa, Staphylococcus aureus; assay: Antimicrobial Effectiveness Testing USP <51>, overall conclusion; assay type: cell-based; conditions: all inoculums
Experimental: The testing was performed in accordance with the USP <51> using the culture conditions for inoculum specified in the test conditions. The Antimicrobial Effectiveness Testing (referred to later in the text as APE or antimicrobial effectiveness) is performed as described in USP 26, The United States Pharmacopeial Convention, Inc. (Rockville, Md., 2002; pp. 2002-2004). The test is conducted in five sterile, capped bacteriological containers into which a sufficient volume of product has been transferred. Test organisms include Candida albicans (ATCC No. 10231), Aspergillus niger (ATCC No. 16404), Escherichia coli (ATCC No. 8739), Pseudomonas aeruginosa (ATCC No. 9027), Staphylococcus aureus (ATCC No. 6538). Each container is inoculated with one of the prepared and standardized inoculum, and mix. […] The number of cfu present in each test preparation is determined by the plate-count procedure, specified in the monograph, for the applicable intervals. Using the calculated concentrations of cfu per mL present at the start of the test, the change in log10 values of the concentration of cfu per mL for each microorganism is calculated at the applicable test intervals, and the changes in terms of log reductions is expressed. Results are evaluated in accordance with the Product Category for Oral Products made with aqueous bases or vehicle.

SMILES	antimicrobial activity [1]	antimicrobial / preservative effectiveness against USP <51> criteria (conclusion) [2]
CC12CC3CC(C)(C1)CC(N)(C3)C2 [memantine, 1-amino-3,5-dimethyl adamantane]	significant antimicrobial activity	
CC1(C)CC(C)(C)CC(C)(N)C1 [neramexane, 1-amino-1,3,3,5,5-pentamethylcyclohexane]	significant antimicrobial activity	sufficient preservative efficacy
CN(C)CCOCC(=O)NC12CC3CC(CC(C3)C1)C2 [tromantadine, 1-(dimethylaminoethoxyacetamido) adamantane]	significant antimicrobial activity	
